Test results published in patent US20090155338A1, “Chronotherapeutic Ocular Delivery System Comprising a Combination of Prostaglandin and a Beta-Blocker for Treating Primary Glaucoma” (ASTON UNIVERSITY, priority 2005, published 2009).
Where a name gives a salt, the structure may show the parent alone.

Legend:
[1] = hydrochloride salt, cited from earlier work
[2] = tested on: IOP; settings: cited from earlier work; for efficiency in decreasing the 24-h IOP: compared with agents that decrease AH production
[3] = cited from earlier work
[4] = cited from earlier work; remark: listed apart in the source
[5] = In vitro delivery of drug from ocular inserts in a humidified Franz-diffusion cell, artificial lachrymal fluid receiver, HPLC; type: physicochemical
Source text: Delivery is monitored in vitro using a Franz-diffusion cell, with the insert in contact with a dialysis membrane to provide support. A membrane with an appropriate molecular weight cut-off is used to allow the passage of pharmaceutical product but not polymer. The receiver solution is an artificial lachrymal fluid, containing NaHCO3 2.2 g/l; NaCl 6.26 g/l; KCl 1.79 g/l; CaCl2.2H2O 0.0735 g/l; MgCl2.6H2O 0.0964 g/l in distilled water (pH to 7.5 with 0.1 M HCl). The temperature used in the diffusion cells is controlled so the internal temperature is 32° C. (the temperature of the corneal surface). The tops of the diffusion cells are sealed using parafilm and the system equilibrated overnight (to give a humid environment). The insert is weighed, then placed on the dialysis membrane and resealed. Samples of delivered pharmaceutical product are removed from the receiver fluid and replaced with fresh liquid to maintain a constant volume. Pharmaceutical product in the receiver fluid is analysed by HPLC. Samples of 1 ml are withdrawn and replaced at given intervals through the side arm. The insert is placed in the donor at time 0. Samples were analysed using HPLC methods described above. It is recommended that betaxolol is analysed within 24 h, or samples frozen. The quantity of drug which has been released at any given time can be calculated using the following equation: […] wherein: Vr is the volume of receiver (ml) Vs the sample volume C[n] is the concentration in the dissolution medium (mg/l) ΣC[m] is the sum total of previous concentrations (mg/l) Mt is the drug released at time t (mg)

SMILES: CC(C)NCC(O)COc1ccc(CCOCC2CC2)cc1 (stereo not shown) [Betaxolol]
- time of maximum effect ([1]; after topical administration): about 2 hours
- onset of action ([1]; topical administration): ≤ 30 min

SMILES: CCNC(=O)CCC/C=C\C[C@@H]1[C@@H](/C=C/[C@@H](O)CCc2ccccc2)[C@H](O)C[C@@H]1O [bimatoprost]
- efficiency in decreasing the 24-h IOP [2]: more efficient in decreasing the 24-h IOP

SMILES: O=C(O)CCC/C=C\C[C@@H]1[C@@H](CC[C@@H](O)CCc2ccccc2)[C@H](O)C[C@@H]1O [latanoprost acid]
- half-life in aqueous humor [3]: 2.8 h

SMILES: CC(C)OC(=O)CCC/C=C\C[C@@H]1[C@@H](CC[C@@H](O)CCc2ccccc2)[C@H](O)C[C@@H]1O [latanoprost]
- solubility in acetone and ethanol ([4]; acetone and ethanol): soluble
- solubility in water ([4]; water): insoluble
- efficiency in decreasing the 24-h IOP [2]: more efficient in decreasing the 24-h IOP

SMILES: CC(C)(C)NC[C@H](O)COc1nsnc1N1CCOCC1 [timolol, timolol maleate]
- timolol released by 6 hours from the beginning of the experiment ([5]; laminated travoprost/timolol insert, 6 hours): over 90%
- timolol released for the first 5 hours ([5]; laminated travoprost/timolol insert, first 5 hours): essentially no timolol was released
- capacity in decreasing IOP at night ([2]; night): reduced capacity in decreasing IOP at night

SMILES: CC(C)OC(=O)CCC/C=C\C[C@@H]1[C@@H](/C=C/[C@@H](O)COc2cccc(C(F)(F)F)c2)[C@H](O)C[C@@H]1O [travoprost]
- period over which travoprost was released at a substantially constant rate ([5]; laminated travoprost/timolol insert, humidity, 32° C., FIG. 5): about 8 hours
- period over which travoprost was released at a substantially-constant rate ([5]; single layer PEO insert with 10% carbopol, travoprost alone, humidity, 32° C., FIG. 4): about 8 hours
- efficiency in decreasing the 24-h IOP [2]: more efficient in decreasing the 24-h IOP
